# Earlier results in patent US20230140155A1, “MEDICAMENT FOR TREATMENT AND/OR PREVENTION OF CANCER” (TORAY INDUSTRIES, INC., priority 2020, published 2023).
# System: basal-like subtype breast cancer (BLBC)
# Details: with docetaxel following epirubicin and cyclophosphamide (EC treatment)
structure (smiles),measurement,value
"[NH2][Pt]1([NH2])[O]C(=O)C2(CCC2)C(=O)[O]1 [carboplatin, (SP-4-2)-diammine[cyclobutan-1,1-dicaruboxylato(2-)-O,O′]platinum]",effectiveness for treatment of BLBC,not effective
